Experimental data: patent US8835440B2, “Cyclic pyrimidin-4-carboxamides as CCR2 receptor antagonists for treatment of inflammation, asthma and COPD” (Boehringer Ingelheim International GmbH, priority 2008, dated 2014)

Biological target: T1, CCR2 (Homo sapiens, UniProt P41597)
T1 construct: Membranes were prepared from THP-1 cells; endogenous in cells; host or cells: THP-1 cells (membrane preparation)
T1 sequence (P41597 1-360 isoform P41597-2): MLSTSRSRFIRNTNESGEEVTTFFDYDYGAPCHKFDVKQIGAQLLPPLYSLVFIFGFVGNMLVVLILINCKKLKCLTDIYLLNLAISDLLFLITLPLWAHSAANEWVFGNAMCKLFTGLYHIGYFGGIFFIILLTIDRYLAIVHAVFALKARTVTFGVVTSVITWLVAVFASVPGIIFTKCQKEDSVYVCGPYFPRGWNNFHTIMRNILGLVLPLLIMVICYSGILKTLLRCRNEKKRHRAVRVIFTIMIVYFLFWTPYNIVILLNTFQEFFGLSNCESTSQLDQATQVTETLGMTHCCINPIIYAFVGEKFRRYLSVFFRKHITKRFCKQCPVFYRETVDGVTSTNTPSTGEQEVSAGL
Assay: CCR2 receptor membrane binding assay ([125I]MCP-1, THP-1 cell membranes, SPA beads)
Settings: for remaining activity at 10 µM: @ 10 μM test compound, THP-1 membranes, read-out: CCR2 % ctrl @ 10 μM; for Ki: dissociation constant hKi, [125I]MCP-1 binding to THP-1 membranes
Summary of the method: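 hKi was derived by iterative law-of-mass-action fitting of scintillation counts read at 8 h. Compound (1% DMSO final) competed with ca. 25000 cpm [125I]MCP-1 for THP-1 membranes bound to WGA-PVT beads. Buffer: 25 mM HEPES pH 7.2, 5 mM MgCl2, 0.5 mM CaCl2, 0.2% BSA.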

remaining activity at 10 µM | Ki | SMILES
1% | 15 nM | Cc1c(NCc2ccc(C(C)(C)C)cc2)ncnc1C(=O)N1CCC(NC2CCOc3ccccc32)CC1 (stereo not shown) [Example 228f]
6% | 169 nM | COC1CC(F)(F)CCC1NC1CCN(C(=O)c2ncnc(NCc3ccc(C(C)(C)C)cc3)c2C)CC1 (stereo not shown) [Example 228g]
– | 23 nM | CO[C@@H]1COCC[C@@H]1NC1CCN(C(=O)c2ncnc(NCc3ccc(C(C)(C)C)cc3)c2C)CC1 [Example 228ga]
– | 561 nM | CC(=O)N1CCC[C@@H](NC2CCN(C(=O)c3ncnc(NCc4ccc(C(C)(C)C)cc4)c3C)CC2)C1 [Example 228gc]
– | 1090 nM | Cc1c(NCc2ccc(C(C)(C)C)cc2)ncnc1C(=O)N1CCC(N[C@@H]2CCCN(S(C)(=O)=O)C2)CC1 [Example 228gd]
– | 37 nM | Cc1c(NCc2ccc(C(C)(C)C)cc2)ncnc1C(=O)N1CCC(N2CCC(COc3ccccc3)C2)CC1 (stereo not shown) [Example 228ge]
– | 145 nM | Cc1c(NCc2ccc(C(C)(C)C)cc2)ncnc1C(=O)N1CCC(N2CCC(Cc3cccnc3)C2)CC1 (stereo not shown) [Example 228gf]
– | 1030 nM | Cc1c(NCc2ccc(C(C)(C)C)cc2)ncnc1C(=O)N1CCC(N2CCc3ncc(C(F)(F)F)cc3C2)CC1 [Example 228gg]
– | 4070 nM | Cc1c(NCc2ccc(C(C)(C)C)cc2)ncnc1C(=O)N1CCC(NCC2CCCCO2)CC1 (stereo not shown) [Example 228gh]
– | 1100 nM | Cc1c(NCc2ccc(C(C)(C)C)cc2)ncnc1C(=O)N1CCC(NC2CCOc3cccnc32)CC1 (stereo not shown) [Example 228gi]
– | 55 nM | Cc1c(NCc2ccc(C(C)(C)C)cc2)ncnc1C(=O)N1CCC(N2CCC3(CC2)CNC(=O)O3)CC1 [Example 228gj]
– | 44 nM | Cc1c(NCc2ccc(C(C)(C)C)cc2)ncnc1C(=O)N1CCC(N2CCC(c3ccc(C#N)cc3)CC2)CC1 [Example 228gk]
– | 537 nM | Cc1c(NCc2ccc(C(C)(C)C)cc2)ncnc1C(=O)N1CCC(N2CCC(Cc3ccc(F)c(F)c3)CC2)CC1 [Example 228gl]
– | 28 nM | Cc1c(NCc2ccc(C(C)(C)C)cc2)ncnc1C(=O)N1CCC(N2C3CCC2CC(O)C3)CC1 (stereo not shown) [Example 228gm]
– | 333 nM | CO[C@@H]1COCC[C@H]1NC1CCN(C(=O)c2ncnc(NCc3ccc(C(C)(C)C)cc3)c2C)CC1 [Example 228gn]
– | 1350 nM | Cc1c(NCc2ccc(C(C)(C)C)cc2)ncnc1C(=O)N1CCC(NC2CCOCC2n2ncnn2)CC1 (stereo not shown) [Example 228gp]
0% | 5 nM | COC1COCCC1N(C)C1CCN(C(=O)c2ncnc(NCC3CCC[C@@H](c4ccccc4)C3)c2C)CC1 (stereo partly shown) [Example 228h]
– | 32 nM | CO[C@@H]1COCC[C@@H]1N(C)C1CCN(C(=O)c2ncnc(NCc3ccc(C(C)(C)C)cc3)c2C)CC1 [Example 228ha]

The next lines start with the molecule.

SMILES | remaining activity at 10 µM | Ki
Cc1c(NCCc2ccc(Cl)c(Cl)c2)ncnc1C(=O)N1CCC(N2CCC[C@H](O)C2)CC1 [Example 229] | 39% | 1130 nM
CC(=O)N1CCN(C2CCN(C(=O)c3ncnc(NCCc4ccc(Cl)c(Cl)c4)c3C)CC2)CC1 [Example 230] | 45% | 1840 nM
Cc1c(NCCc2ccc(Cl)c(Cl)c2)ncnc1C(=O)N1CCC(N2CCC[C@@H](O)C2)CC1 [Example 231] | 15% | 215 nM
Cc1c(NCCc2ccc(Cl)c(Cl)c2)ncnc1C(=O)N1CCC(N2CC[C@@H](C(N)=O)C2)CC1 [Example 232] | 34% | 924 nM
Cc1c(NCc2ccc(Cl)c(Cl)c2)ncnc1C(=O)N1CCC(N2CCCC(F)C2)CC1 (stereo not shown) [Example 233] | 8% | 194 nM
Cc1c(NCc2cccc(-c3ccccc3)c2)ncnc1C(=O)N1CCC(N2CCOC(C)C2)CC1 (stereo not shown) [Example 234] | 19% | 401 nM
Cc1c(NCc2ccc(Cl)c(Cl)c2)ncnc1C(=O)N1CCC(N2CCCCCC2)CC1 [Example 235] | 26% | 460 nM
Cc1c(NCc2cccc(-c3ccccc3)c2)ncnc1C(=O)N1CCC(N2CCC(N(C)C)CC2)CC1 [Example 236] | 14% | 175 nM
